From publication PMC7758422, “Design, Synthesis, and Antitumor Activities Study of Stapled A4K14-Citropin 1.1 Peptides” (Frontiers in Chemistry, 2020) come the findings set out here.

Like-named read-outs stand apart in the source and are kept apart here. Bridge positions count the residues as written; N and C are the ends. Square brackets hold non-standard residues; d marks the D form. Peptide text beside a SMILES is read from it. R8 = C=CCCCCCC[C@@](C)(N)C(=O)O; S5 = C=CCCC[C@](C)(N)C(=O)O

One data set has as its system α-chymotrypsin. Description: Protease stability experiment (α-chymotrypsin-mediated degradation). The data set is classed as in vitro ADME. The conditions noted are these: for half-life at 25 µM: α-chymotrypsin 0.5 ng/μl in PBS pH 7.4 with 2 mM CaCl2, 50 μl peptide 1 mM in DMSO + 1,950 μl enzyme, 37°C, 0, 1, 2, 4, 8, 12 h, residual peptide by HPLC, read-out: t1/2 (h), hydrolysis enzyme degradation half-life (converted); for remaining at 12 h, 25 µM: read-out: peptide remaining intact after 12 h of protease exposure. On the procedure:
Protease Stability Experiment
Fifty microliters peptides in dimethyl sulfoxide (DMSO) (1 mM) and 1,950 μl α-chymotrypsin in phosphate-buffered saline (PBS) (0.5 ng/μl, pH 7.4, containing 2 mM CaCl2) were mixed and incubated at 37°C. After 0, 1, 2, 4, 8, and 12 h, the percent residual peptide was monitored by HPLC.

The test system of a further data set is glioma cell line U87. The data set is classed as cell-based. The source says: (§1) Cell Culture and Cell Viability Assay
(§2) The human prostate cancer cell line C4-2B was kindly provided and authenticated by Dr. Leland Chung (Cedars-Sinai Medical Center, Los Angeles, CA, USA). The human lung tumor cell line A549, the human breast tumor cell line MCF-7, and glioma cell line U87 were obtained from Shanghai Cellular Institute of Chinese Academy of Sciences (Shanghai, China). All cell lines were maintained in Dulbecco's modified Eagle's medium (DMEM) involving 10% fetal bovine serum (FBS) and 1% penicillin–streptomycin (PS) (complete DMEM) and was cultured at 37°C with humidified atmosphere of 5% CO2. Cell viability was examined using the cell counting kit (CCK-8) in accordance with manufacturer's protocol. Cells were seeded in 96-well culture plates at a density of 3 ×10^3 cells/well at 37°C for 24 h. Next day, cells were treated without or with various concentrations (0.39, 0.78, 1.56, 3.125, 6.25, 12.5, 25, and 50 μM) of peptides for 96 h after which 10 μl of CCK-8 reagent was added to each well and incubated for further 2 h at 37°C. The optical density (OD) was then measured at a wavelength of 450 nm on a Cell Imaging Multi-Mode Reader (BioTek, Vermont, USA), and the average OD values for each sample were analyzed using Image-J software (NIH, Bethesda, MD, USA). The half maximal inhibitory concentration (IC50) was calculated by GraphPad Prism v7.0 software (San Diego, CA, USA).

In data set [1] the test system is human breast tumor cell line MCF-7. Type of data set: cell-based.
Excerpt: as §1, §2

Data set [2] relates to human lung tumor cell line A549. Type of data set: cell-based.
Excerpt: as §1, §2

The subject of data set [3] is human prostate cancer cell line C4-2B. Type of data set: cell-based.
Excerpt: as §1, §2

Data set [4] is described as follows: on-resin all-hydrocarbon stapling by ring-closing metathesis of S5/S5 (i,i+4) or R8/S5 (i,i+7), Grubbs first-generation catalyst (0.45 mmol per 0.15 mmol resin, 3 equiv), then TFA/TIPS/phenol/H2O cleavage and RP-HPLC. The conditions noted are these: the molecule shown is the open-chain precursor, 21-membered ring, 1,2-dichloroethane, 25.0 °C, 4.0 h, 36 steps.
Where [5] appears, read: CCK-8, 96 h treatment, 0.39-50 μM, OD 450 nm, read-out: IC50 (μM) U87.
[6] abbreviates: CCK-8, 96 h treatment, 0.39-50 μM, OD 450 nm, read-out: IC50 (μM) MCF-7.
Setting [7] is: CCK-8, 96 h treatment, 0.39-50 μM, OD 450 nm, read-out: IC50 (μM) A549.
The mark [8] stands for this setting: CCK-8, 96 h treatment, 0.39-50 μM, OD 450 nm, read-out: IC50 (μM) C4-2B.
Setting [9] is: α-chymotrypsin 0.5 ng/μl in PBS pH 7.4 with 2 mM CaCl2, 37°C, 12 h, HPLC.

Usually IC50 stands for the point on the concentration scale where inhibition reaches its midpoint. For the compound `CC[C@H](C)[C@H](NC(=O)[C@@H](NC(=O)[C@H](C)NC(=O)[C@H](Cc1ccccc1)NC(=O)[C@H](CC(C)C)NC(=O)CNC(C)=O)C(C)C)C(=O)N[C@@H](CCCCN)C(=O)N[C@@H](CCCCN)C(=O)N[C@H](C(=O)N[C@@H](C)C(=O)N[C@@]1(C)CCCC=CCCC[C@@](C)(C(=O)N[C@@H](CC(C)C)C(N)=O)NC(=O)[C@H](CCCCN)NC(=O)[C@H]([C@@H](C)CC)NC(=O)[C@H](C(C)C)NC1=O)C(C)C` [A4K14-citropin1.1-5] (Ac-GLFAVIKKVA[S5]VIK[S5]L-NH2; staple 11-15), the half-life at 25 µM with α-chymotrypsin is 1.83 h. The IC50 was determined as 8.23 µM in the data set on glioma cell line U87 (setting [5]), 12.4 µM in data set [1] (setting [6]), 9.9 µM in data set [2] (setting [7]) and 11.9 µM in data set [3] (setting [8]).
As for “Ac-GLFAVIKKVASVIKGL-NH2 [A4K14-citropin1.1, reference compound]”, in the data set on α-chymotrypsin (setting [9]), the “peptide remaining intact after 12 h of protease exposure” value was “degraded completely”. Besides, the half-life at 25 µM with α-chymotrypsin is 0.63 h. Besides, the IC50 in the data set on glioma cell line U87 (setting [5]) was found to be 14.8 µM; in data set [1] (setting [6]) it was 14.2 µM; in data set [2] (setting [7]), 15 µM; in data set [3] (setting [8]), 29.1 µM.
For the compound `C=CCCC[C@](C)(NC(=O)CNC(C)=O)C(=O)N[C@@H](Cc1ccccc1)C(=O)N[C@@H](C)C(=O)N[C@H](C(=O)N[C@@](C)(CCCC=C)C(=O)N[C@@H](CCCCNC(=O)OC(C)(C)C)C(=O)N[C@@H](CCCCNC(=O)OC(C)(C)C)C(=O)N[C@H](C(=O)N[C@@H](C)C(=O)N[C@@H](COC(C)(C)C)C(=O)N[C@H](C(=O)N[C@H](C(=O)N[C@@H](CCCCNC(=O)OC(C)(C)C)C(=O)NCC(=O)N[C@@H](CC(C)C)C(N)=O)[C@@H](C)CC)C(C)C)C(C)C)C(C)C`, the ring closure, overall yield in data set [4] was 63 % yield.
Regarding `C=CCCC[C@](C)(NC(=O)[C@H](CCCCNC(=O)OC(C)(C)C)NC(=O)[C@H](CCCCNC(=O)OC(C)(C)C)NC(=O)[C@@H](NC(=O)[C@@H](NC(=O)[C@H](C)NC(=O)[C@H](Cc1ccccc1)NC(=O)[C@H](CC(C)C)NC(=O)CNC(C)=O)C(C)C)[C@@H](C)CC)C(=O)N[C@@H](C)C(=O)N[C@@H](COC(C)(C)C)C(=O)N[C@H](C(=O)N[C@@](C)(CCCC=C)C(=O)N[C@@H](CCCCNC(=O)OC(C)(C)C)C(=O)NCC(=O)N[C@@H](CC(C)C)C(N)=O)C(C)C`, the ring closure, overall yield in data set [4] amounted to 66 % yield.
Same read-out and setting: the figure for `C=CCCC[C@](C)(NC(=O)[C@H](C)NC(=O)[C@H](Cc1ccccc1)NC(=O)[C@H](CC(C)C)NC(=O)CNC(C)=O)C(=O)N[C@H](C(=O)N[C@@H](CCCCNC(=O)OC(C)(C)C)C(=O)N[C@@H](CCCCNC(=O)OC(C)(C)C)C(=O)N[C@@](C)(CCCC=C)C(=O)N[C@@H](C)C(=O)N[C@@H](COC(C)(C)C)C(=O)N[C@H](C(=O)N[C@H](C(=O)N[C@@H](CCCCNC(=O)OC(C)(C)C)C(=O)NCC(=O)N[C@@H](CC(C)C)C(N)=O)[C@@H](C)CC)C(C)C)[C@@H](C)CC` is 62 % yield.
In general, fraction remaining refers to the share of the starting amount still present when the sample was taken. Consider `CC[C@H](C)[C@H](NC(=O)[C@@H](NC(=O)[C@H](CO)NC(=O)[C@H](C)NC(=O)[C@@H](NC(=O)[C@H](CCCCN)NC(=O)[C@H](CCCCN)NC(=O)[C@]1(C)CCCC=CCCC[C@](C)(NC(=O)CNC(C)=O)C(=O)N[C@@H](Cc2ccccc2)C(=O)N[C@@H](C)C(=O)N[C@@H](C(C)C)C(=O)N1)C(C)C)C(C)C)C(=O)N[C@@H](CCCCN)C(=O)NCC(=O)N[C@@H](CC(C)C)C(N)=O` [A4K14-citropin1.1-1] (Ac-G[S5]FAV[S5]KKVASVIKGL-NH2; staple 2-6), for which the amount remaining at 12 h, 25 µM in the data set on α-chymotrypsin (setting [9]) is over 85%. Moreover, the half-life at 25 µM in the data set with α-chymotrypsin was over 10 h. For the same compound, the IC50 in the data set on glioma cell line U87 (setting [5]) amounted to 11.9 µM; in data set [1] (setting [6]), 11.3 µM; in data set [2] (setting [7]), 12.5 µM; in data set [3] (setting [8]), 8.94 µM.
As for `CC[C@H](C)[C@@H]1NC(=O)[C@H](C(C)C)NC(=O)[C@H](C)NC(=O)[C@H](Cc2ccccc2)NC(=O)[C@](C)(NC(=O)CNC(C)=O)CCCCCCC=CCCC[C@@](C)(C(=O)N[C@@H](C)C(=O)N[C@@H](CO)C(=O)N[C@H](C(=O)N[C@H](C(=O)N[C@@H](CCCCN)C(=O)NCC(=O)N[C@@H](CC(C)C)C(N)=O)[C@@H](C)CC)C(C)C)NC(=O)[C@H](CCCCN)NC(=O)[C@H](CCCCN)NC1=O` [A4K14-citropin1.1-6] (Ac-G[R8]FAVIKK[S5]ASVIKGL-NH2; staple 2-9), the half-life at 25 µM in the data set on α-chymotrypsin was 0.57 h. For the same compound, the IC50 with glioma cell line U87 (setting [5]) amounted to 34.5 µM; in data set [1] (setting [6]) it was 23.8 µM; in data set [2] (setting [7]), 30.2 µM; in data set [3] (setting [8]), 35.8 µM.
For the compound `CC[C@H](C)[C@H](NC(=O)[C@@H](NC(=O)[C@H](C)NC(=O)[C@H](Cc1ccccc1)NC(=O)[C@H](CC(C)C)NC(=O)CNC(C)=O)C(C)C)C(=O)N[C@@H](CCCCN)C(=O)N[C@@H](CCCCN)C(=O)N[C@@]1(C)CCCC=CCCC[C@@](C)(C(=O)N[C@@H](CCCCN)C(=O)NCC(=O)N[C@@H](CC(C)C)C(N)=O)NC(=O)[C@H](C(C)C)NC(=O)[C@H](CO)NC(=O)[C@H](C)NC1=O` [A4K14-citropin1.1-4] (Ac-GLFAVIKK[S5]ASV[S5]KGL-NH2; staple 9-13), the share remaining at 12 h, 25 µM in the data set on α-chymotrypsin (setting [9]) is over 85%. Besides, in the data set on α-chymotrypsin, the half-life at 25 µM is over 10 h. For the same compound, the IC50 is 7.28 µM with glioma cell line U87 (setting [5]), 10.5 µM in data set [1] (setting [6]), 10.5 µM in data set [2] (setting [7]) and 8.9 µM in data set [3] (setting [8]).
As to `CC[C@H](C)[C@H](NC(=O)[C@@H](NC(=O)[C@H](CO)NC(=O)[C@H](C)NC(=O)[C@]1(C)CCCC=CCCC[C@](C)(NC(=O)[C@H](C)NC(=O)[C@H](Cc2ccccc2)NC(=O)[C@H](CC(C)C)NC(=O)CNC(C)=O)C(=O)N[C@@H]([C@@H](C)CC)C(=O)N[C@@H](CCCCN)C(=O)N[C@@H](CCCCN)C(=O)N1)C(C)C)C(=O)N[C@@H](CCCCN)C(=O)NCC(=O)N[C@@H](CC(C)C)C(N)=O` [A4K14-citropin1.1-2] (Ac-GLFA[S5]IKK[S5]ASVIKGL-NH2; staple 5-9), the half-life at 25 µM in the data set with α-chymotrypsin is 1.72 h. The IC50 in the data set with glioma cell line U87 (96 h) was 14.8 µM; in data set [1] (96 h), 12.7 µM; in data set [2] (96 h), 12.6 µM; in data set [3] (96 h), 10.1 µM.
Take `CC(=O)NCC(=O)N[C@@H](CC(C)C)C(=O)N[C@@H](Cc1ccccc1)C(=O)N[C@@H](C)C(=O)N[C@H](C(=O)N[C@]1(C)CCCCCCC=CCCC[C@@](C)(C(=O)N[C@@H](CCCCN)C(=O)NCC(=O)N[C@@H](CC(C)C)C(N)=O)NC(=O)[C@H](C(C)C)NC(=O)[C@H](CO)NC(=O)[C@H](C)NC(=O)[C@H](C(C)C)NC(=O)[C@H](CCCCN)NC(=O)[C@H](CCCCN)NC1=O)C(C)C` [A4K14-citropin1.1-7] (Ac-GLFAV[R8]KKVASV[S5]KGL-NH2; staple 6-13): the half-life at 25 µM with α-chymotrypsin was 0.58 h. Further, the IC50 in the data set on glioma cell line U87 (setting [5]) was determined as 14.7 µM; in data set [1] (setting [6]) it was 12.1 µM; in data set [2] (setting [7]), 16.4 µM; in data set [3] (setting [8]), 10.2 µM.
Take `CC[C@H](C)[C@H](NC(=O)[C@@H](NC(=O)[C@H](CO)NC(=O)[C@]1(C)CCCC=CCCC[C@](C)(NC(=O)[C@@H](NC(=O)[C@H](C)NC(=O)[C@H](Cc2ccccc2)NC(=O)[C@H](CC(C)C)NC(=O)CNC(C)=O)C(C)C)C(=O)N[C@@H](CCCCN)C(=O)N[C@@H](CCCCN)C(=O)N[C@@H](C(C)C)C(=O)N1)C(C)C)C(=O)N[C@@H](CCCCN)C(=O)NCC(=O)N[C@@H](CC(C)C)C(N)=O` [A4K14-citropin1.1-3] (Ac-GLFAV[S5]KKV[S5]SVIKGL-NH2; staple 6-10): the half-life at 25 µM with α-chymotrypsin is 0.61 h. Besides, the IC50 in the data set with glioma cell line U87 (setting [5]) is 11.9 µM; in data set [1] (setting [6]) it was 11.9 µM; in data set [2] (setting [7]), 12.1 µM; in data set [3] (setting [8]), 17.9 µM.
